Source: patent US20100041089A1, “IMPROVED METHOD FOR DETECTING CHEMICAL […]” (priority 2006, published 2010)

Tested on: yeast genes (expressed mRNA)
Assay: DNA chip measurement of expressed mRNA of yeast genes after culture with a toxic chemical substance
Type: cell-based, Saccharomyces cerevisiae S288C
Details: for level of expressed mRNA in the presence of chemical substance / level in the absence of chemical substance: cultured two hours with the chemical substance; for The level of expressed mRNA in the presence of chemical substance/The level of expressed mRNA in the absence of chemical substance: cultured two hours with substance
Experimental: Yeast (Saccharomyces cerevisiae S288C (a SUC2mal mel gap2 CUP1)) were cultured at 25° C. on YPD medium (yeast extract 1%, polypeptone 2%, glucose 2%). One of toxic chemical substances was added to the cell at logarithmic growth phase, and the cell was further cultured for two hours. Cell was cultured without any chemical substance in the same condition, and was used as a control. Concentrations of the chemical substances were defined to inhibit the growth of the yeast but not lead to death.
After the completion of cultivation, the culture was centrifuged to collect the cells. To the cells, sodium acetate buffer (50 mM sodium acetate, 10 mM EDTA, 1% SDS) was added, and the mixture was shaken at 65° C. for five minutes, followed by returning to room temperature, and obtaining the supernatant, which procedure was repeated two times. To the supernatant, ½ amount of a solution of phenol/chloroform (1:1) was added, and the mixture was centrifuged to give a supernatant, an equal amount of chloroform was added, and the mixture was centrifuged to give a supernatant. To the supernatant, an equal amount of isopropanol containing 0.3 M sodium acetate was added, and the mixture was allowed to stand at room temperature for 30 minutes, after which the mixture was centrifuged to give sediment of the whole RNAs. Seventy % ethanol was added to the sediment, and the mixture was again centrifuged to give sediment, which was then dried and dissolved in water. mRNA was isolated from the whole RNAs as followings. In view of the fact that a poly A chain is attached to the 3′ terminus of mRNA, a polynucleotide having a poly T structure which was immobilized on the surface of latex beads was used to trap the mRNA, and then the mRNA was washed and eluted with spine column (Oligotex-dT30<Super>mRNA Purification Kit, Takara). Reverse transcription of the mRNA was conducted with a reverse transcriptase (Super Script II Reverse Transcriptase; catalogue No. 18064-014, GibcoBRL) using fluorescence-labeled nucleotides to give cDNAs that were introduced with Cy3-dUTP or Cy5-dUTP during the reverse transcription.
The labeled cDNAs were dissolved in TE buffer (10 mM Tris-HCl/1 mM EDTA, pH 8.0), and the solution was dropped on the DNA chip containing the whole genes of yeast (DNA Chip Research Inc. Japan) so that the cDNAs were hybridized on the DNA chip at 65° C. for over 12 hours. The fluoresces intensity of the DNA chip was read with a scanner, and the ratio relative to the fluorescence intensity resulting from the absence of chemical substance was estimated as the following, which is shown in Tables 1 to 9.
In the Tables, “Intensity” indicated in the rightmost column is a value of the level of expressed mRNA of each gene in control cells as divided by the average level of the expressions of the whole genes. A gene of which mRNA level is lower in control, and is higher in cases of addition of chemical substance, is especially useful in the detection of toxic substances.
Here, when a ratio of an amount of mRNA expressed in the presence of the chemical substance to an amount of mRNA expressed in the absence of the chemical substance is two or more, then it is considered significant.

Question: Which “level of expressed mRNA in the presence of chemical substance / level in the absence of chemical substance” value (yeast gene YJL097W) does the source give for “Manganese ethylenebis(dithiocarbamate) [(8)]” here?
Answer: 0.8

Question: What about the “The level of expressed mRNA in the presence of chemical substance/The level of expressed mRNA in the absence of chemical substance” value (yeast gene YJL151C) of the same substance?
Answer: 0.8

Question: What about the “The level of expressed mRNA in the presence of chemical substance/The level of expressed mRNA in the absence of chemical substance” value (yeast gene YJL152W) of the same substance?
Answer: 0.7

Question: What about the “The level of expressed mRNA in the presence of chemical substance/The level of expressed mRNA in the absence of chemical substance” value (yeast gene YJL161W) of the same substance?
Answer: 1.4

Question: What about the “The level of expressed mRNA in the presence of chemical substance/The level of expressed mRNA in the absence of chemical substance” value (yeast gene YJL171C) of the same substance?
Answer: 0.9

Question: And the “The level of expressed mRNA in the presence of chemical substance/The level of expressed mRNA in the absence of chemical substance” value (yeast gene YJR008W)?
Answer: 1.1

Question: What about the “level of expressed mRNA in the presence of chemical substance / level in the absence of chemical substance” value (yeast gene YJR030C) of the same substance?
Answer: 0.9

Question: And the “The level of expressed mRNA in the presence of chemical substance/The level of expressed mRNA in the absence of chemical substance” value (yeast gene YJR054W)?
Answer: 1.6

Question: What about the “level of expressed mRNA in the presence of chemical substance / level in the absence of chemical substance” value (yeast gene YKL051W) of the same substance?
Answer: 0.8

Question: And the “The level of expressed mRNA in the presence of chemical substance/The level of expressed mRNA in the absence of chemical substance” value (yeast gene YKL071W)?
Answer: 24.7

Question: And the “The level of expressed mRNA in the presence of chemical substance/The level of expressed mRNA in the absence of chemical substance” value (yeast gene YKL086W)?
Answer: 1.1

Question: And the “level of expressed mRNA in the presence of chemical substance / level in the absence of chemical substance” value (yeast gene YKL097C)?
Answer: 0.4

Question: And the “level of expressed mRNA in the presence of chemical substance / level in the absence of chemical substance” value (yeast gene YKL100C)?
Answer: 0.7

Question: What about the “The level of expressed mRNA in the presence of chemical substance/The level of expressed mRNA in the absence of chemical substance” value (yeast gene YKL151C) of the same substance?
Answer: 1.0

Question: And the “The level of expressed mRNA in the presence of chemical substance/The level of expressed mRNA in the absence of chemical substance” value (yeast gene YKL153W)?
Answer: 0.7

Question: What about the “The level of expressed mRNA in the presence of chemical substance/The level of expressed mRNA in the absence of chemical substance” value (yeast gene YKL195W) of the same substance?
Answer: 1.2

Question: What about the “level of expressed mRNA in the presence of chemical substance / level in the absence of chemical substance” value (yeast gene YKR040C) of the same substance?
Answer: 1.0

Question: What about the “The level of expressed mRNA in the presence of chemical substance/The level of expressed mRNA in the absence of chemical substance” value (yeast gene YKR091W) of the same substance?
Answer: 1.3

Question: And the “The level of expressed mRNA in the presence of chemical substance/The level of expressed mRNA in the absence of chemical substance” value (yeast gene YLR054C)?
Answer: 1.1

Question: What about the “The level of expressed mRNA in the presence of chemical substance/The level of expressed mRNA in the absence of chemical substance” value (yeast gene YLR149C) of the same substance?
Answer: 1.1

Question: And the “The level of expressed mRNA in the presence of chemical substance/The level of expressed mRNA in the absence of chemical substance” value (yeast gene YLR152C)?
Answer: 1.2

Question: And the “The level of expressed mRNA in the presence of chemical substance/The level of expressed mRNA in the absence of chemical substance” value (yeast gene YLR194C)?
Answer: 1.0

Question: And the “level of expressed mRNA in the presence of chemical substance / level in the absence of chemical substance” value (yeast gene YLR226W)?
Answer: 1.3

Question: And the “The level of expressed mRNA in the presence of chemical substance/The level of expressed mRNA in the absence of chemical substance” value (yeast gene YLR324W)?
Answer: 1.0

Question: What about the “level of expressed mRNA in the presence of chemical substance / level in the absence of chemical substance” value (yeast gene YLR338W) of the same substance?
Answer: 0.8

Question: What about the “The level of expressed mRNA in the presence of chemical substance/The level of expressed mRNA in the absence of chemical substance” value (yeast gene YLR350W) of the same substance?
Answer: 1.0

Question: What about the “The level of expressed mRNA in the presence of chemical substance/The level of expressed mRNA in the absence of chemical substance” value (yeast gene YLR387C) of the same substance?
Answer: 1.4

Question: What about the “level of expressed mRNA in the presence of chemical substance / level in the absence of chemical substance” value (yeast gene YLR392C) of the same substance?
Answer: 1.3

Question: What about the “level of expressed mRNA in the presence of chemical substance / level in the absence of chemical substance” value (yeast gene YLR415C) of the same substance?
Answer: 0.9

Question: What about the “level of expressed mRNA in the presence of chemical substance / level in the absence of chemical substance” value (yeast gene YLR427W) of the same substance?
Answer: 1.1

Question: What about the “The level of expressed mRNA in the presence of chemical substance/The level of expressed mRNA in the absence of chemical substance” value (yeast gene YLR460C) of the same substance?
Answer: 8.1

Question: What about the “level of expressed mRNA in the presence of chemical substance / level in the absence of chemical substance” value (yeast gene YML013W) of the same substance?
Answer: 0.6

Question: And the “level of expressed mRNA in the presence of chemical substance / level in the absence of chemical substance” value (yeast gene YML029W)?
Answer: 0.9

Question: What about the “level of expressed mRNA in the presence of chemical substance / level in the absence of chemical substance” value (yeast gene YML041C) of the same substance?
Answer: 1.8

Question: And the “level of expressed mRNA in the presence of chemical substance / level in the absence of chemical substance” value (yeast gene YML079W)?
Answer: 1.2

Question: What about the “The level of expressed mRNA in the presence of chemical substance/The level of expressed mRNA in the absence of chemical substance” value (yeast gene YML117W) of the same substance?
Answer: 0.7

Question: And the “The level of expressed mRNA in the presence of chemical substance/The level of expressed mRNA in the absence of chemical substance” value (yeast gene YMR009W)?
Answer: 1.4

Question: And the “The level of expressed mRNA in the presence of chemical substance/The level of expressed mRNA in the absence of chemical substance” value (yeast gene YMR067C)?
Answer: 1.1

Question: And the “level of expressed mRNA in the presence of chemical substance / level in the absence of chemical substance” value (yeast gene YMR068W)?
Answer: 0.8

Question: What about the “level of expressed mRNA in the presence of chemical substance / level in the absence of chemical substance” value (yeast gene YMR071C) of the same substance?
Answer: 1.1

Question: And the “The level of expressed mRNA in the presence of chemical substance/The level of expressed mRNA in the absence of chemical substance” value (yeast gene YMR090W)?
Answer: 3.9

Question: What about the “The level of expressed mRNA in the presence of chemical substance/The level of expressed mRNA in the absence of chemical substance” value (yeast gene YMR095C) of the same substance?
Answer: 1.2

Question: What about the “The level of expressed mRNA in the presence of chemical substance/The level of expressed mRNA in the absence of chemical substance” value (yeast gene YMR097C) of the same substance?
Answer: 1.5

Question: What about the “The level of expressed mRNA in the presence of chemical substance/The level of expressed mRNA in the absence of chemical substance” value (yeast gene YMR102C) of the same substance?
Answer: 1.0

Question: What about the “The level of expressed mRNA in the presence of chemical substance/The level of expressed mRNA in the absence of chemical substance” value (yeast gene YMR107W) of the same substance?
Answer: 1.3

Question: And the “level of expressed mRNA in the presence of chemical substance / level in the absence of chemical substance” value (yeast gene YMR160W)?
Answer: 0.9

Question: What about the “The level of expressed mRNA in the presence of chemical substance/The level of expressed mRNA in the absence of chemical substance” value (yeast gene YMR180C) of the same substance?
Answer: 1.8

Question: And the “The level of expressed mRNA in the presence of chemical substance/The level of expressed mRNA in the absence of chemical substance” value (yeast gene YMR184W)?
Answer: 1.9

Question: What about the “The level of expressed mRNA in the presence of chemical substance/The level of expressed mRNA in the absence of chemical substance” value (yeast gene YMR191W) of the same substance?
Answer: 1.1

Question: What about the “The level of expressed mRNA in the presence of chemical substance/The level of expressed mRNA in the absence of chemical substance” value (yeast gene YMR295C) of the same substance?
Answer: 1.0

Question: And the “The level of expressed mRNA in the presence of chemical substance/The level of expressed mRNA in the absence of chemical substance” value (yeast gene YMR316W)?
Answer: 1.6

Question: And the “level of expressed mRNA in the presence of chemical substance / level in the absence of chemical substance” value (yeast gene YNL026W)?
Answer: 1.0
